Assay results as given in US20260034113A1, “THIADIAZOLONE DERIVATIVES, COMPOSITIONS AND USES THEREOF” (Danatlas Pharmaceuticals Co., Ltd., priority 2023, published 2026).

target: PolQ (1-899) (Homo sapiens (Human), UniProt O75417); experiment: PolQ ATPase assay (ADP-Glo); type: biochemical; details: not given
Protocol: The ability of the compounds of the present disclosure to inhibit ATPase activity of PolQ (1-899) was determined using the assay described below.
PolQ ATPase activity was determined by ADP-Glo assay. 10-point dilution series of compounds were used in a 384 well format for the inhibition assays. PolQ (1-899) (1 nM) in assay buffer (20 mM Tris HCl (pH 8.0), 80 mM KCl, 10 mM MgCl2, 1 mM DTT, 0.01% BSA, 0.01% Tween, 5% glycerol) was transferred to the test wells (20 uL), except the low control wells (20 μL of assay buffer was added to the low control wells). The plate was then incubated at room temperature for 30 min. An equal volume (20 μL) of 100 μM ATP, 150 nM ssDNA containing 50 thymine bases in assay buffer was added to all the test wells. The plates were covered and left to incubate for 60 min. at room temperature before the addition of the ADP Glo detection reagents. After 60 min. incubation, transfer 5 μL reaction mix to another 384-well plate and add 5 μL ADP Glo and plates incubated for 60 min. before addition of 10 μL kinase detection reagent. After the addition of the kinase detection reagent, the plates were covered and incubated for 60 min. and read luminescence on Envision
Percent inhibition was calculated as follows:
[formula] • where “Max” is the high control (DMSO) and “Min” is the no enzyme control.
IC50 values were calculated using a four-parameter logistic curve fit using the following formula: […]
IC50 values were determined by fitting the data to the standard 4 parameters with Hill Slope using GraphPad Prism software.

PolQ (1-899), sequence (O75417 1-899): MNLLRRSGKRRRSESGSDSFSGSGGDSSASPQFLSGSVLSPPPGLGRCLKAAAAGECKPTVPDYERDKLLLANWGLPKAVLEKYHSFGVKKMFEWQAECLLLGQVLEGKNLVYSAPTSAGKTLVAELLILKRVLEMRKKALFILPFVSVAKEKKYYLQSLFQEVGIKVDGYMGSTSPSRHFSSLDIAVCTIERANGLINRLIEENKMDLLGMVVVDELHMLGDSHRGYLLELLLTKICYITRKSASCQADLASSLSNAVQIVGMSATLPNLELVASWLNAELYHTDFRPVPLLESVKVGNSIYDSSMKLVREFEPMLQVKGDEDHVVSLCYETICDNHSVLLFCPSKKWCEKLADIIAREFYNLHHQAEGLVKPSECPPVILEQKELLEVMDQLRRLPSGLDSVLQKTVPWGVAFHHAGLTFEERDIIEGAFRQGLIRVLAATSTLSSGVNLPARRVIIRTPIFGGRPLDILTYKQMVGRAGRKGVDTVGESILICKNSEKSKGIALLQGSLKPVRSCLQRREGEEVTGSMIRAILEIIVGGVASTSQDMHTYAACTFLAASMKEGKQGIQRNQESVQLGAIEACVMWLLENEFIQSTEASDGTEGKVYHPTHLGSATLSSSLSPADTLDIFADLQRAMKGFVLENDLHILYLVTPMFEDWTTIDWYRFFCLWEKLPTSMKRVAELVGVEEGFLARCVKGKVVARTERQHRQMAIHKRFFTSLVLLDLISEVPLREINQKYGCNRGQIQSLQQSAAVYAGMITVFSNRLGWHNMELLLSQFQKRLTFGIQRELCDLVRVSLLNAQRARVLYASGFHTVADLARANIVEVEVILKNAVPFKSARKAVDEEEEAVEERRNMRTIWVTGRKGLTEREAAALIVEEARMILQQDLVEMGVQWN

| SMILES | IC50 [nM] |
| --- | --- |
| COc1ccc(Cl)c(F)c1-c1cc(C)ncc1C(=O)Nc1nn(CC(=O)N2CC[C@@H](N(C)C)C2)c(=O)s1 [Example 9, 4-(3-Chloro-2-fluoro-6-methoxyphenyl)-N-(4-(2-((R)-3-(dimethylamino)pyrrolidin-1-yl)-2-oxoethyl)-5-oxo-4,5-dihydro-1,3,4-thiadiazol-2-yl)-6-methylnicotinamide] | 10 to 100 |
| COc1ccc(Cl)c(F)c1-c1cc(C)ncc1C(=O)Nc1nn(CC(=O)N2CC[C@H](N(C)C)C2)c(=O)s1 [Example 10, 4-(3-Chloro-2-fluoro-6-methoxyphenyl)-N-(4-(2-((S)-3-(dimethylamino)pyrrolidin-1-yl)-2-oxoethyl)-5-oxo-4,5-dihydro-1,3,4-thiadiazol-2-yl)-6-methylnicotinamide] | 10 to 100 |

Continued, values first:

| IC50 [nM] | SMILES |
| --- | --- |
| 10 to 100 | COc1ccccc1-c1cc(C)ncc1C(=O)Nc1nn(CCCCO)c(=O)s1 [Example 24, N-(4-(4-Hydroxybutyl)-5-oxo-4,5-dihydro-1,3,4-thiadiazol-2-yl)-4-(2-methoxyphenyl)-6-methylnicotinamide] |
| 10 to 100 | COc1cnc(Cl)cc1-c1cc(C)ncc1C(=O)Nc1nn(CCCCO)c(=O)s1 [Example 29, 2′-Chloro-N-(4-(4-hydroxybutyl)-5-oxo-4,5-dihydro-1,3,4-thiadiazol-2-yl)-5′-methoxy-6-methyl-[4,4′-bipyridine]-3-carboxamide] |

same assay, conditions: inhibition of ATPase activity of PolQ (1-899), 1 nM enzyme, 100 μM ATP, 150 nM ssDNA, ADP-Glo

| SMILES | IC50 [nM] |
| --- | --- |
| COCCn1nc(NC(=O)c2cnc(C)cc2-c2c(OC)ccc(Cl)c2F)sc1=O [Example 1, 4-(3-Chloro-2-fluoro-6-methoxyphenyl)-N-(4-(2-methoxyethyl)-5-oxo-4,5-dihydro-1,3,4-thiadiazol-2-yl)-6-methylnicotinamide] | < 10 |
| COc1ccc(Cl)c(F)c1-c1cc(C)ncc1C(=O)Nc1nn(CC(F)(F)F)c(=O)s1 [Example 2, 4-(3-Chloro-2-fluoro-6-methoxyphenyl)-6-methyl-N-(5-oxo-4-(2,2,2-trifluoroethyl)-4,5-dihydro-1,3,4-thiadiazol-2-yl)nicotinamide] | < 10 |
| CCn1nc(NC(=O)c2cnc(C)cc2-c2c(OC)ccc(Cl)c2F)sc1=O [Example 3, 4-(3-Chloro-2-fluoro-6-methoxyphenyl)-N-(4-ethyl-5-oxo-4,5-dihydro-1,3,4-thiadiazol-2-yl)-6-methylnicotinamide] | < 10 |
| COCCCn1nc(NC(=O)c2cnc(C)cc2-c2c(OC)ccc(Cl)c2F)sc1=O [Example 4, 4-(3-Chloro-2-fluoro-6-methoxyphenyl)-N-(4-(3-methoxypropyl)-5-oxo-4,5-dihydro-1,3,4-thiadiazol-2-yl)-6-methylnicotinamide] | < 10 |
| COCCCCn1nc(NC(=O)c2cnc(C)cc2-c2c(OC)ccc(Cl)c2F)sc1=O [Example 5, 4-(3-Chloro-2-fluoro-6-methoxyphenyl)-N-(4-(4-methoxybutyl)-5-oxo-4,5-dihydro-1,3,4-thiadiazol-2-yl)-6-methylnicotinamide] | < 10 |
| COc1ccc(Cl)c(F)c1-c1cc(C)ncc1C(=O)Nc1nn(CCO)c(=O)s1 [Example 6, 4-(3-Chloro-2-fluoro-6-methoxyphenyl)-N-(4-(2-hydroxyethyl)-5-oxo-4,5-dihydro-1,3,4-thiadiazol-2-yl)-6-methylnicotinamide] | < 10 |
| COc1ccc(Cl)c(F)c1-c1cc(C)ncc1C(=O)Nc1nn(CCCO)c(=O)s1 [Example 7, 4-(3-Chloro-2-fluoro-6-methoxyphenyl)-N-(4-(3-hydroxypropyl)-5-oxo-4,5-dihydro-1,3,4-thiadiazol-2-yl)-6-methylnicotinamide] | < 10 |
| COc1ccc(Cl)c(F)c1-c1cc(C)ncc1C(=O)Nc1nn(CC(=O)O)c(=O)s1 [Example 8, 2-(5-(4-(3-Chloro-2-fluoro-6-methoxyphenyl)-6-methylnicotinamido)-2-oxo-1,3,4-thiadiazol-3(2H)-yl)acetic acid] | < 10 |
| COc1ccc(Cl)c(F)c1-c1cc(C)ncc1C(=O)Nc1nn(CCC#N)c(=O)s1 [Example 11, 4-(3-Chloro-2-fluoro-6-methoxyphenyl)-N-(4-(2-cyanoethyl)-5-oxo-4,5-dihydro-1,3,4-thiadiazol-2-yl)-6-methylnicotinamide] | < 10 |
| COc1ccc(Cl)c(F)c1-c1cc(C)ncc1C(=O)Nc1nn(CCCC#N)c(=O)s1 [Example 12, 4-(3-Chloro-2-fluoro-6-methoxyphenyl)-N-(4-(3-cyanopropyl)-5-oxo-4,5-dihydro-1,3,4-thiadiazol-2-yl)-6-methylnicotinamide] | < 10 |
| COc1ccc(C(F)(F)F)c(F)c1-c1cc(C)ncc1C(=O)Nc1nn(CCCO)c(=O)s1 [Example 13, 4-(2-Fluoro-6-methoxy-3-(trifluoromethyl)phenyl)-N-(4-(3-hydroxypropyl)-5-oxo-4,5-dihydro-1,3,4-thiadiazol-2-yl)-6-methylnicotinamide] | < 10 |
| COc1ccc(Cl)c(F)c1-c1cc(C)ncc1C(=O)Nc1nn(CCCCO)c(=O)s1 [Example 14, 4-(3-Chloro-2-fluoro-6-methoxyphenyl)-N-(4-(4-hydroxybutyl)-5-oxo-4,5-dihydro-1,3,4-thiadiazol-2-yl)-6-methylnicotinamide] | < 10 |

Now from value to molecule:

| IC50 [nM] | SMILES |
| --- | --- |
| < 10 | COc1ccc(Cl)c(F)c1-c1cc(C)ncc1C(=O)Nc1nn(CCC(C)(C)O)c(=O)s1 [Example 15, 4-(3-Chloro-2-fluoro-6-methoxyphenyl)-N-(4-(3-hydroxy-3-methylbutyl)-5-oxo-4,5-dihydro-1,3,4-thiadiazol-2-yl)-6-methylnicotinamide] |
| < 10 | COc1ccc(Cl)c(F)c1-c1cc(C)ncc1C(=O)Nc1nn(CCC(C)O)c(=O)s1 (stereo not shown) [Example 16, 4-(3-Chloro-2-fluoro-6-methoxyphenyl)-N-(4-(3-hydroxybutyl)-5-oxo-4,5-dihydro-1,3,4-thiadiazol-2-yl)-6-methylnicotinamide] |
| < 10 | COc1ccc(Cl)c(F)c1-c1cc(C)ncc1C(=O)Nc1nn(CC2CC(O)C2)c(=O)s1 (stereo not shown) [Example 17, 4-(3-Chloro-2-fluoro-6-methoxyphenyl)-N-(4-((3-hydroxycyclobutyl)methyl)-5-oxo-4,5-dihydro-1,3,4-thiadiazol-2-yl)-6-methylnicotinamide] |
| < 10 | COc1ccc(Cl)c(F)c1-c1cc(C)ncc1C(=O)Nc1nn(CCn2cccn2)c(=O)s1 [Example 18, N-(4-(2-(1H-pyrazol-1-yl)ethyl)-5-oxo-4,5-dihydro-1,3,4-thiadiazol-2-yl)-4-(3-chloro-2-fluoro-6-methoxyphenyl)-6-methylnicotinamide] |
| < 10 | COc1ccc(Cl)c(F)c1-c1cc(C)ncc1C(=O)Nc1nn(CC(C)O)c(=O)s1 (stereo not shown) [Example 20, 4-(3-Chloro-2-fluoro-6-methoxyphenyl)-N-(4-(2-hydroxypropyl)-5-oxo-4,5-dihydro-1,3,4-thiadiazol-2-yl)-6-methylnicotinamide] |
| < 10 | CCC(O)Cn1nc(NC(=O)c2cnc(C)cc2-c2c(OC)ccc(Cl)c2F)sc1=O (stereo not shown) [Example 21, 4-(3-Chloro-2-fluoro-6-methoxyphenyl)-N-(4-(2-hydroxybutyl)-5-oxo-4,5-dihydro-1,3,4-thiadiazol-2-yl)-6-methylnicotinamide] |
| < 10 | COc1ccc(Cl)c(F)c1-c1cnccc1C(=O)Nc1nn(CCCCO)c(=O)s1 [Example 22, 3-(3-Chloro-2-fluoro-6-methoxyphenyl)-N-(4-(4-hydroxybutyl)-5-oxo-4,5-dihydro-1,3,4-thiadiazol-2-yl)isonicotinamide] |
| > 500 | COc1ccccc1-n1cncc1C(=O)Nc1nn(CCCCO)c(=O)s1 [Example 23, N-(4-(4-Hydroxybutyl)-5-oxo-4,5-dihydro-1,3,4-thiadiazol-2-yl)-1-(2-methoxyphenyl)-1H-imidazole-5-carboxamide] |
| < 10 | COc1ccc(Cl)cc1-c1cc(C)ncc1C(=O)Nc1nn(CCCCO)c(=O)s1 [Example 25, 4-(5-Chloro-2-methoxyphenyl)-N-(4-(4-hydroxybutyl)-5-oxo-4,5-dihydro-1,3,4-thiadiazol-2-yl)-6-methylnicotinamide] |
| < 10 | COc1ccc(C(F)(F)F)c(F)c1-c1cc(C)ncc1C(=O)Nc1nn(CCCCO)c(=O)s1 [Example 27, 4-(2-Fluoro-6-methoxy-3-(trifluoromethyl)phenyl)-N-(4-(4-hydroxybutyl)-5-oxo-4,5-dihydro-1,3,4-thiadiazol-2-yl)-6-methylnicotinamide] |
| < 10 | COc1ccc(C)c(F)c1-c1cc(C)ncc1C(=O)Nc1nn(CCCCO)c(=O)s1 [Example 28, 4-(2-Fluoro-6-methoxy-3-methylphenyl)-N-(4-(4-hydroxybutyl)-5-oxo-4,5-dihydro-1,3,4-thiadiazol-2-yl)-6-methylnicotinamide] |
| < 10 | COc1ccc(Cl)c(F)c1-c1cc(-c2ccn(C)n2)ncc1C(=O)Nc1nn(CCCCO)c(=O)s1 [Example 30, 4-(3-Chloro-2-fluoro-6-methoxyphenyl)-N-(4-(4-hydroxybutyl)-5-oxo-4,5-dihydro-1,3,4-thiadiazol-2-yl)-6-(1-methyl-1H-pyrazol-3-yl)nicotinamide] |
